Data published in EP2193713A1, “Method for fighting animal pests without damaging pollinating insects” (Bayer CropScience AG, priority 2008, dated 2010).
Where two headings read alike, the source gives them in different places.

Assays:
Assay type in all cases: in vivo
Apis mellifera [1] = conditions: for Zahl toter Arbeiterbienen: 10 mg a.s./pl.
Description: (§1) Die Mortalität von Arbeiterbienen vor dem Bienenstock wird mittels einer Falle für tote Bienen (dead bee trap) bestimmt. Die Falle besteht aus Maschendraht und ist vor dem Bienenstock angebracht. Einzelne, lebende Bienen können die Maschen des Drahts passieren, der Transport toter Bienen durch die Maschen ist nicht möglich, weswegen tote Bienen sich in der Falle ansammeln. Tabelle 1 (siehe auch Figur 1)

Apis mellifera [2] = experiment: Tunnel test / spray application / bees: foraging activity; conditions: for Aktivität der Nahrungssuche, Zahl der Bienen / min / m^2: 50 g a.s./ha
Description: (§2) Der Test wurde gemäß EPPO (European Plant Protection Organisation) Leitlinie 170 wie folgt durchgeführt:
Während einer Minute werden in einem abgegrenzten Bereich von 2 x 1 m^2 die Bienen gezählt, die auf Blüten absitzen. Tabelle 3 (siehe auch Figur 3)

Apis mellifera [3] = experiment: Tent test / drench application / bees: foraging activity; conditions: for Aktivität der Nahrungssuche, Zahl der Bienen / min / 4 m^2: 10 mg a.s./pl.
Description: Der Test wurde wie folgt durchgeführt:

Apis mellifera [4] = experiment: Tunnel test / spray application / bees: brood development (share of comb cells); conditions: 50 g a.s./ha
Description: as §2
Über alle Waben eines Bienenstocks wird der jeweilige Anteil an Zellen bestimmt, der durch Pollen, Nektar, Eier, Larven oder Puppen belegt ist bzw. leer ist. […]

Apis mellifera [5] = experiment: Greenhouse test / residue test / bees: mortality after contact with treated tomato leaves; conditions: 50 g a.s./ha
Description: Der Versuch wurde wie folgt durchgeführt:
Die Tomatenpflanzen wurden im Gewächshaus mit den Testverbindungen bzw. der Referenzsubstanz behandelt (Spritzappliaktion, 3 fache Wiederholung). 1, 3, 6 und 13 Tage nach Behandlung (DAA) wurden Blätter entnommen (je 5 Blattproben pro Behandlung) und in Boxen gegeben. In jede Box wurden 10 Bienen transferiert und die Boxen wurden unter kontrollierten Bedingungen aufbewahrt, wobei die Bienen mit Zuckerlösung gefüttert wurden. 24, 48 und 72 nach Transfer der Bienen wurde deren Mortalität bestimmt. Tabelle 9 (siehe auch Figur 9)

Apis mellifera [6] = conditions: for Zahl toter Arbeiterbienen: 50 g a.s./ha
Description: as §2, §1

Apis mellifera [7] = experiment: Tunnel test / spray application / bees: acute mortality of pupae in front of the hive; conditions: 50 g a.s./ha
Description: as §2
Tabelle 2 (siehe auch Figur 2)

[8] = result in words, 27 Tage nach Applikation

## CN1COCN(Cc2cnc(Cl)s2)/C1=N\[N+](=O)[O-] [Thiamethoxam, reference compound]
Apis mellifera [1]; 6 DAA a (9:30 Uhr)
  Zahl toter Arbeiterbienen: 143
Apis mellifera [1]; 6 DAA b (14:30 Uhr)
  Zahl toter Arbeiterbienen: 35
Apis mellifera [1]; 7 DAA
  Zahl toter Arbeiterbienen: 394
Apis mellifera [1]; 8 DAA
  Zahl toter Arbeiterbienen: 143
Apis mellifera [1]; 9 DAA
  Zahl toter Arbeiterbienen: 78
Apis mellifera [1]; 10 DAA
  Zahl toter Arbeiterbienen: 295
Apis mellifera [1]; 11 DAA
  Zahl toter Arbeiterbienen: 110
Apis mellifera [1]; 14 DAA
  Zahl toter Arbeiterbienen: 40
Apis mellifera [1]; 16 DAA
  Zahl toter Arbeiterbienen: 74
Apis mellifera [1]; 18 DAA
  Zahl toter Arbeiterbienen: 29
Apis mellifera [1]; result in words, tent test, drench, I-5 20 mg a.s. / Pflanze, Thiamethoxam 10 mg a.s. / Pflanze
  Mortalität von Arbeiterbienen vor dem Bienenstock: ausgeprägte Mortalität
Apis mellifera [2]; 0 DAA a (09:30 Uhr)
  Aktivität der Nahrungssuche, Zahl der Bienen / min / m^2: 26,8 Bienen / min / m^2
Apis mellifera [2]; 0 DAA c (14:15 Uhr)
  Aktivität der Nahrungssuche, Zahl der Bienen / min / m^2: 0,9 Bienen / min / m^2
Apis mellifera [2]; 0 DAA e (17:15 Uhr)
  Aktivität der Nahrungssuche, Zahl der Bienen / min / m^2: 0,4 Bienen / min / m^2
Apis mellifera [2]; 1 DAA b (15:30 Uhr)
  Aktivität der Nahrungssuche, Zahl der Bienen / min / m^2: 0 Bienen / min / m^2
Apis mellifera [2]; 2 DAA
  Aktivität der Nahrungssuche, Zahl der Bienen / min / m^2: 1,5 Bienen / min / m^2
Apis mellifera [2]; 3 DAA
  Aktivität der Nahrungssuche, Zahl der Bienen / min / m^2: 1,6 Bienen / min / m^2
Apis mellifera [2]; 6 DAA
  Aktivität der Nahrungssuche, Zahl der Bienen / min / m^2: 5,4 Bienen / min / m^2
Apis mellifera [2]; -1 DAA (before application)
  Aktivität der Nahrungssuche, Zahl der Bienen / min / m^2: 26,1 Bienen / min / m^2
Apis mellifera [2]; -2 DAA (before application)
  Aktivität der Nahrungssuche, Zahl der Bienen / min / m^2: 35,2 Bienen / min / m^2
Apis mellifera [2]; -3 DAA (before application)
  Aktivität der Nahrungssuche, Zahl der Bienen / min / m^2: 24,5 Bienen / min / m^2
Apis mellifera [2]; result in words, tunnel test, spray, I-5 75 und 150 g a.s./ha, Thiamethoxam 50 g a.s./ha directly after application
  Aktivität der Nahrungssuche: fast vollständige Einstellung der Aktivität der Nahrungssuche
Apis mellifera [3]; 5 DAA
  Aktivität der Nahrungssuche, Zahl der Bienen / min / 4 m^2: 28 Bienen / min / 4 m^2
Apis mellifera [3]; 6 DAA b (14:30 Uhr)
  Aktivität der Nahrungssuche, Zahl der Bienen / min / 4 m^2: 70 Bienen / min / 4 m^2
Apis mellifera [3]; 7 DAA
  Aktivität der Nahrungssuche, Zahl der Bienen / min / 4 m^2: 23 Bienen / min / 4 m^2
Apis mellifera [3]; 8 DAA
  Aktivität der Nahrungssuche, Zahl der Bienen / min / 4 m^2: 25 Bienen / min / 4 m^2
Apis mellifera [3]; 9 DAA
  Aktivität der Nahrungssuche, Zahl der Bienen / min / 4 m^2: 19 Bienen / min / 4 m^2
Apis mellifera [3]; 11 DAA
  Aktivität der Nahrungssuche, Zahl der Bienen / min / 4 m^2: 16 Bienen / min / 4 m^2
Apis mellifera [3]; 13 DAA
  Aktivität der Nahrungssuche, Zahl der Bienen / min / 4 m^2: 14 Bienen / min / 4 m^2
Apis mellifera [3]; 15 DAA
  Aktivität der Nahrungssuche, Zahl der Bienen / min / 4 m^2: 8 Bienen / min / 4 m^2
Apis mellifera [3]; 16 DAA
  Aktivität der Nahrungssuche, Zahl der Bienen / min / 4 m^2: 15 Bienen / min / 4 m^2
Apis mellifera [3]; 17 DAA
  Aktivität der Nahrungssuche, Zahl der Bienen / min / 4 m^2: 13 Bienen / min / 4 m^2
Apis mellifera [3]; 18 DAA
  Aktivität der Nahrungssuche, Zahl der Bienen / min / 4 m^2: 6 Bienen / min / 4 m^2
Apis mellifera [3]; result in words, tent test, drench, I-5 20 mg a.s. / Pflanze, Thiamethoxam 10 mg a.s. / Pflanze (13 Tage nach Applikation)
  Aktivität der Nahrungssuche: fast vollständige Einstellung der Aktivität der Nahrungssuche
Apis mellifera [4]; 1 Tag vor Applikation
  Anteil an Zellen: Eier: 17,5%
  Anteil an Zellen: Larven: 9%
  Anteil an Zellen: Leer: 30%
  Anteil an Zellen: Nektar: 12%
  Anteil an Zellen: Pollen: 2,4%
  Anteil an Zellen: Puppen: 29,1%
Apis mellifera [4]; 6 Tage nach Applikation
  Anteil an Zellen: Eier: 11,4%
  Anteil an Zellen: Larven: 6,3%
  Anteil an Zellen: Leer: 30,9%
  Anteil an Zellen: Nektar: 19,4%
  Anteil an Zellen: Pollen: 3,3%
  Anteil an Zellen: Puppen: 28,7%
Apis mellifera [4]; 14 Tage nach Applikation
  Anteil an Zellen: Eier: 19,4%
  Anteil an Zellen: Larven: 7,4%
  Anteil an Zellen: Leer: 51,8%
  Anteil an Zellen: Nektar: 9,2%
  Anteil an Zellen: Pollen: 1,5%
  Anteil an Zellen: Puppen: 10,7%
Apis mellifera [4]; 27 Tage nach Applikation
  Anteil an Zellen: Eier: 6,1%
  Anteil an Zellen: Larven: 2%
  Anteil an Zellen: Leer: 52%
  Anteil an Zellen: Nektar: 15,5%
  Anteil an Zellen: Pollen: 5,1%
  Anteil an Zellen: Puppen: 19,2%
Apis mellifera [4]; [8]
  Zahl der Larven: starke Abnahme
  leere Wabenzellen: Verdoppelung
Apis mellifera [5]; leaves taken 1 Tag nach Behandlung, 24 h contact
  Mortalität: 100%
Apis mellifera [5]; leaves taken 1 Tag nach Behandlung, 48 h contact
  Mortalität: 100%
Apis mellifera [5]; leaves taken 1 Tag nach Behandlung, 72 h contact
  Mortalität: 100%
Apis mellifera [5]; leaves taken 3 Tage nach Behandlung, 24 h contact
  Mortalität: 100%
Apis mellifera [5]; leaves taken 3 Tage nach Behandlung, 48 h contact
  Mortalität: 100%
Apis mellifera [5]; leaves taken 3 Tage nach Behandlung, 72 h contact
  Mortalität: 100%
Apis mellifera [5]; leaves taken 6 Tage nach Behandlung, 24 h contact
  Mortalität: 100%
Apis mellifera [5]; leaves taken 6 Tage nach Behandlung, 48 h contact
  Mortalität: 100%
Apis mellifera [5]; leaves taken 6 Tage nach Behandlung, 72 h contact
  Mortalität: 100%
Apis mellifera [5]; leaves taken 13 Tage nach Behandlung, 24 h contact
  Mortalität: 93,3%
Apis mellifera [5]; leaves taken 13 Tage nach Behandlung, 48 h contact
  Mortalität: 93%
Apis mellifera [5]; leaves taken 13 Tage nach Behandlung, 72 h contact
  Mortalität: 93,3%
Apis mellifera [6]; 0 DAA b (15:15 Uhr)
  Zahl toter Arbeiterbienen: 420
Apis mellifera [6]; 0 DAA c (17:15 Uhr)
  Zahl toter Arbeiterbienen: 45,3
Apis mellifera [6]; 1 DAA
  Zahl toter Arbeiterbienen: 152,8
Apis mellifera [6]; 2 DAA
  Zahl toter Arbeiterbienen: 229,4
Apis mellifera [6]; 3 DAA
  Zahl toter Arbeiterbienen: 50,2
Apis mellifera [6]; 4 DAA
  Zahl toter Arbeiterbienen: 891,6
Apis mellifera [6]; 5 DAA
  Zahl toter Arbeiterbienen: 2,4
Apis mellifera [6]; 6 DAA
  Zahl toter Arbeiterbienen: 9
Apis mellifera [6]; 11 DAA
  Zahl toter Arbeiterbienen: 16,5
Apis mellifera [6]; -3 DAA (before application)
  Zahl toter Arbeiterbienen: 1,6
Apis mellifera [6]; result in words, tunnel test, spray, I-5 75 und 150 g a.s./ha, Thiamethoxam 50 g a.s./ha
  Mortalität von Arbeiterbienen vor dem Bienenstock: ausgeprägte Mortalität
Apis mellifera [7]; 0 DAA c (17:15 Uhr)
  Zahl toter Puppen: 0
Apis mellifera [7]; 1 DAA
  Zahl toter Puppen: 0
Apis mellifera [7]; 2 DAA
  Zahl toter Puppen: 0,1
Apis mellifera [7]; 5 DAA
  Zahl toter Puppen: 0,5
Apis mellifera [7]; 6 DAA
  Zahl toter Puppen: 0
Apis mellifera [7]; 11 DAA
  Zahl toter Puppen: 0
Apis mellifera [7]; 14 DAA
  Zahl toter Puppen: 0,4
Apis mellifera [7]; 18 DAA
  Zahl toter Puppen: 0
Apis mellifera [7]; 21 DAA
  Zahl toter Puppen: 0
Apis mellifera [7]; 25 DAA
  Zahl toter Puppen: 0,2
Apis mellifera [7]; -3 DAA (before application)
  Zahl toter Puppen: 0
